In ChEMBL document CHEMBL1128724, “Unsaturated acyclic analogues of 2'-deoxyadenosine and thymidine containing fluorine: synthesis and biological activity” (J Med Chem, 1995):

Experiments:
ATH-8 cell line [1] = assay: Inhibitory activity against HIV-1 in ATH8 cells; IA means Inactive; type: functional, cell-based, Homo sapiens
ATH-8 cell line [2] = assay: Inhibitory activity against HIV-1 in ATH8 cells; type: functional, cell-based; details: Homo sapiens
L1210 = assay: Growth inhibition of murine leukemia L1210 cells.; type: functional, cell-based; details: Mus musculus

Row | IC50 (L1210) | further results | Compound
1 | – | IC50 (ATH-8 cell line [1]): Not Active | Nc1ncnc2c1ncn2C/C=C(\F)CO
2 | – | IC50 (ATH-8 cell line [2]): 100 µM | Nc1ncnc2c1ncn2C/C=C(/F)CO
3 | 89 µM | – | Nc1ncnc2c1ncn2C(F)C#CCO (centres undefined)
4 | 60 µM | – | Cc1cn(C/C=C(/F)CO)c(=O)[nH]c1=O
